# In US20260373174A1, “THYROID BETA-AGONIST DOSING REGIMENS FOR THE TREATMENT OF X-ALD” (Viking Therapeutics, Inc., priority 2022, published 2026):
# Assay: previous phase 1 study, single and multiple dose cohorts
# Format: in vivo, human
# Conditions: doses used in this study (20, 40, 60, 80 mg QD, oral); preliminary results from 6 multiple dose cohorts (up to 100 mg) and 7 single dose cohorts (up to 125 mg)
structure (smiles),measurement,value
Cc1cc(OCP(=O)(O)O)cc(C)c1Cc1ccc(O)c(Cc2ccccc2)c1 [Compound 1],lipid plasma levels,lowering of lipid plasma levels
same,safety,without safety issues
